US9469645B2, “Compounds and compositions for the treatment of parasitic diseases” (Novartis AG, priority 2009, dated 2016)

Tests used:
3D7 P. falciparum strain = test: parasite proliferation assay in infected red blood cells (SYBR Green I); assay type: cell-based, Plasmodium falciparum; conditions: Plasmodium falciparum, 3D7, Erythrocyte, 3D7 strain; read-out: EC50 3D7 strain
Method in brief: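 P. falciparum 3D7 grown in O+ human erythrocytes to 3–8% parasitemia and exposed to compounds. Proliferation read as the increase in parasite DNA. Detection used SYBR Green I in saponin/triton-X/EDTA lysis buffer, with overnight lysis at room temperature.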

W2 strain = test: parasite proliferation assay in infected red blood cells (SYBR Green I), W2 strain; assay type: cell-based; conditions: Erythrocyte
Excerpt: Compounds of the invention can be assayed to measure their capacity to inhibit proliferation of parasitemia in infected red blood cells. The proliferation is quantified by the addition of SYBR Green I (INVITROGEN)® dye which has a high affinity for double stranded DNA.

CCCCC(=O)Nc1ccc(C[C@H](N)C(=O)N2CCn3c(nc(-c4cccc(F)c4)c3Nc3ccc(F)cc3)C2)cc1 [Compound 260] was tested. Which EC50 (3D7 P. falciparum strain) did it give?
The EC50 was 7640 nM.

And the EC50 (W2 strain)?
Its EC50 is 5010 nM.

CCC(=O)Nc1ccc(C[C@H](N)C(=O)N2CCn3c(nc(-c4cccc(F)c4)c3Nc3ccc(F)cc3)C2)cc1 [Compound 261] was tested. Which EC50 (3D7 P. falciparum strain) did it give?
Its EC50 is 7060 nM.

What about the EC50 (W2 strain) of the same molecule?
Its EC50 is 4130 nM.

Which EC50 (3D7 P. falciparum strain) does the source give for CC(C)(N)C(=O)N1CCn2c(nc(-c3ccc(F)cc3)c2Nc2ccc(C#N)cc2)C1 [Compound 263] here?
The EC50 was 350 nM.

What about the EC50 (W2 strain) of the same molecule?
Its EC50 is 653 nM.

Which EC50 (3D7 P. falciparum strain) does the source give for N#Cc1ccc(Nc2c(-c3ccc(F)cc3)nc3n2CCN(C(=O)CN)C3)cc1 [Compound 264] here?
Its EC50 is 110 nM.

What about the EC50 (W2 strain) of the same molecule?
Its EC50 is 154 nM.

How did the EC50 (3D7 P. falciparum strain) turn out when CC(C)(O)CC(=O)N1CCn2c(nc(-c3ccc(F)cc3)c2Nc2ccc(C#N)cc2)C1 [Compound 265] was run?
Its EC50 is 1350 nM.

And the EC50 (W2 strain)?
The EC50 was 1580 nM.

For CCCCCNc1ccc(C[C@H](NC(=O)OC(C)(C)C)C(=O)N2CCn3c(nc(-c4ccc(F)cc4)c3Nc3ccc(C)cc3)C2)cc1 [Compound 267, (S)-tert-butyl 1-(2-(4-fluorophenyl)-3-(p-tolylamino)-5,6-dihydroimidazo[1,2-a]pyrazin-7 (8H)-yl)-1-oxo-3-(4-(pentylamino)phenyl)propan-2-ylcarbamate], which EC50 (3D7 P. falciparum strain) is on record?
Its EC50 is 990 nM.

What about the EC50 (W2 strain) of the same molecule?
The EC50 was 474 nM.

With CCC(=O)OC(C(=O)N1CCn2c(nc(-c3ccc(F)cc3)c2Nc2ccc(C)cc2)C1)c1ccccc1 (stereo not shown) [Compound 268] as the molecule, how does the EC50 (3D7 P. falciparum strain) read?
The EC50 was 10 nM.

What about the EC50 (W2 strain) of the same molecule?
Its EC50 is 12 nM.

Which results are given for CCCC(=O)OC(C(=O)N1CCn2c(nc(-c3ccc(F)cc3)c2Nc2ccc(C)cc2)C1)c1ccccc1 (stereo not shown) [Compound 269]?
EC50 (3D7 P. falciparum strain): 10 nM; EC50 (W2 strain): 6 nM

How did the EC50 (3D7 P. falciparum strain) turn out when O=C(CN1CCn2c(nc(-c3ccc(F)cc3)c2Nc2ccc(Cl)cc2)C1)c1ccc(F)cc1 [Compound 271] was run?
Its EC50 is 440 nM.

And the EC50 (W2 strain)?
The EC50 was 385 nM.

Which results are given for CCCCCNc1ccc(C[C@H](N)C(=O)N2CCn3c(nc(-c4ccc(F)cc4)c3Nc3ccc(C)cc3)C2)cc1 [Compound 272]?
EC50 (3D7 P. falciparum strain): 3590 nM; EC50 (W2 strain): 3260 nM

With Cc1ccc(Nc2c(-c3ccc(F)cc3)nc3n2CCN(C(=O)N2CCC(N4CCCC(C)C4)CC2)C3)cc1 (stereo not shown) [Compound 273] as the molecule, how does the EC50 (3D7 P. falciparum strain) read?
Its EC50 is 3330 nM.

What about the EC50 (W2 strain) of the same molecule?
The EC50 was 3470 nM.

Which results are given for Cc1ccc(Nc2c(-c3ccc(F)cc3)nc3n2CCN(C(=O)N2CCC(N4CCCCC4)CC2)C3)cc1 [Compound 274]?
EC50 (3D7 P. falciparum strain): 5140 nM; EC50 (W2 strain): 5670 nM

For Cc1ccc(Nc2c(-c3ccc(F)c(F)c3)nc3n2CCNC3)cc1 [Compound 278], which EC50 (3D7 P. falciparum strain) is on record?
The EC50 was 210 nM.

What about the EC50 (W2 strain) of the same molecule?
The EC50 was 269 nM.

With Cc1ccc(Nc2c(-c3cccc(Cl)c3)nc3n2CCNC3)cc1 [Compound 279] as the molecule, how does the EC50 (3D7 P. falciparum strain) read?
Its EC50 is 3520 nM.

And the EC50 (W2 strain)?
The EC50 was 3830 nM.

With Cc1ccc(Nc2c(-c3ccc(F)cc3F)nc3n2CCNC3)cc1 [Compound 280] as the molecule, how does the EC50 (3D7 P. falciparum strain) read?
Its EC50 is 4710 nM.

What about the EC50 (W2 strain) of the same molecule?
Its EC50 is 4650 nM.

For CC(O)CN[C@@H](Cc1ccccc1)C(=O)N1CCn2c(nc(-c3ccc(F)cc3)c2Nc2ccc(Cl)c(F)c2)C1 (stereo partly shown) [Compound 281], which EC50 (3D7 P. falciparum strain) is on record?
Its EC50 is 820 nM.

What about the EC50 (W2 strain) of the same molecule?
Its EC50 is 596 nM.

With COCCN[C@@H](Cc1ccccc1)C(=O)N1CCn2c(nc(-c3ccc(F)cc3)c2Nc2ccc(Cl)c(F)c2)C1 [Compound 282] as the molecule, how does the EC50 (3D7 P. falciparum strain) read?
Its EC50 is 120 nM.

And the EC50 (W2 strain)?
Its EC50 is 117 nM.

With Cc1c(Cc2ccccc2)nc2n1[C@H](CCc1ccccc1)CN(C(=O)c1cccnc1)[C@H]2Cc1ccccc1 [Compound 283] as the molecule, how does the EC50 (3D7 P. falciparum strain) read?
Its EC50 is 5520 nM.

What about the EC50 (W2 strain) of the same molecule?
Its EC50 is 3490 nM.

How did the EC50 (3D7 P. falciparum strain) turn out when Cc1ccc(Nc2c(-c3ccc(F)cc3)nc3n2CCN(C(=O)[C@H](N)CO)C3)cc1 [Compound 284] was run?
The EC50 was 50 nM.

And the EC50 (W2 strain)?
Its EC50 is 37 nM.

What does the source list for Cc1ccc(Nc2c(-c3ccc(F)cc3)nc3n2CCN(C(=O)[C@H](N)[C@H](C)O)C3)cc1 [Compound 285]?
EC50 (3D7 P. falciparum strain): 180 nM; EC50 (W2 strain): 177 nM

What does the source list for Cc1ccc(Nc2c(-c3ccc(F)cc3)nc3n2CCN(C(=O)[C@@H](N)CCS(C)(=O)=O)C3)cc1 [Compound 286]?
EC50 (3D7 P. falciparum strain): 1380 nM; EC50 (W2 strain): 1500 nM

For Cc1ccc(Nc2c(-c3ccc(F)cc3)nc3n2CCN(C(=O)[C@H](N)CC(=O)O)C3)cc1 [Compound 287], which EC50 (3D7 P. falciparum strain) is on record?
The EC50 was 4360 nM.

What about the EC50 (W2 strain) of the same molecule?
The EC50 was 7260 nM.

Cc1ccc(Nc2c(-c3ccc(F)cc3)nc3n2CCN(C(=O)[C@@H](N)CS(C)(=O)=O)C3)cc1 [Compound 288] was tested. Which EC50 (3D7 P. falciparum strain) did it give?
Its EC50 is 890 nM.

What about the EC50 (W2 strain) of the same molecule?
The EC50 was 1390 nM.

Which results are given for Cc1c(Cc2ccccc2)nc2n1[C@H](CCc1ccccc1)C(=O)N[C@@H]2Cc1ccccc1 [Compound 289, (5R,8R)-2,8-dibenzyl-3-methyl-5-phenethyl-7,8-dihydroimidazo[1,2-a]pyrazin-6(5H)-one]?
EC50 (3D7 P. falciparum strain): 3880 nM; EC50 (W2 strain): 747 nM

What does the source list for CCC(=O)N[C@H](C(=O)N1CCn2c(nc(-c3ccc(F)cc3)c2Nc2ccc(C)cc2)C1)c1ccccc1 [Compound 290]?
EC50 (3D7 P. falciparum strain): 440 nM; EC50 (W2 strain): 397 nM

Which EC50 (3D7 P. falciparum strain) does the source give for CCCC(=O)N[C@H](C(=O)N1CCn2c(nc(-c3ccc(F)cc3)c2Nc2ccc(C)cc2)C1)c1ccccc1 [Compound 291] here?
Its EC50 is 1200 nM.

What about the EC50 (W2 strain) of the same molecule?
The EC50 was 567 nM.

How did the EC50 (3D7 P. falciparum strain) turn out when CN(c1ccc(Cl)c(F)c1)c1c(-c2ccc(F)cc2)nc2n1CCNC2 [Compound 292, N-(4-chloro-3-fluorophenyl)-2-(4-fluorophenyl)-N-methyl-5,6,7,8-tetrahydro imidazo[1,2-a]pyrazin-3-amine] was run?
The EC50 was 150 nM.

And the EC50 (W2 strain)?
The EC50 was 156 nM.

For CN(c1ccc(Cl)c(F)c1)c1c(-c2ccc(F)cc2)nc2n1CCN(C(=O)C(C)(C)N)C2 [Compound 294], which EC50 (3D7 P. falciparum strain) is on record?
The EC50 was 110 nM.

And the EC50 (W2 strain)?
Its EC50 is 113 nM.

For CCCCN[C@H](C(=O)N1CCn2c(nc(-c3ccc(F)cc3)c2Nc2ccc(C)cc2)C1)c1ccccc1 [Compound 295], which EC50 (3D7 P. falciparum strain) is on record?
Its EC50 is 210 nM.

What about the EC50 (W2 strain) of the same molecule?
The EC50 was 283 nM.

What does the source list for CCCCCN[C@H](C(=O)N1CCn2c(nc(-c3ccc(F)cc3)c2Nc2ccc(C)cc2)C1)c1ccccc1 [Compound 296]?
EC50 (3D7 P. falciparum strain): 280 nM; EC50 (W2 strain): 424 nM

For CC(C)(C)Nc1c(-c2ccc(F)cc2)nc2n1CCNC2 [Compound 297, N-tert-butyl-2-(4-fluorophenyl)-5,6,7,8-tetrahydroimidazo[1,2-a]pyrazin-3-amine], which EC50 (3D7 P. falciparum strain) is on record?
Its EC50 is 5290 nM.

What about the EC50 (W2 strain) of the same molecule?
Its EC50 is 8500 nM.

How did the EC50 (3D7 P. falciparum strain) turn out when Cc1ccc(Nc2c(-c3ccc(F)cc3)nc3n2CCN(C(=O)[C@@H](NC(=O)CCOCCOCCOCCOCCNC(=O)CCCCC2SCC4NC(=O)NC42)c2ccccc2)C3)cc1 (stereo partly shown) [Compound 298] was run?
The EC50 was 610 nM.

And the EC50 (W2 strain)?
The EC50 was 193 nM.

Which results are given for Cc1ccc(N2Cc3nc(-c4ccc(F)cc4)c(N)n3CC2=O)cc1 [Compound 299]?
EC50 (3D7 P. falciparum strain): > 8740 nM; EC50 (W2 strain): 9400 nM

How did the EC50 (3D7 P. falciparum strain) turn out when Cc1ccc(Nc2c(-c3ccc(F)cc3)nc3n2CC(=O)NC3)cc1 [Compound 300] was run?
The EC50 was 1110 nM.

And the EC50 (W2 strain)?
Its EC50 is 1170 nM.

What does the source list for COC[C@H](N)C(=O)N1CCn2c(nc(-c3ccc(F)cc3)c2Nc2ccc(Cl)c(F)c2)C1 [Compound 301]?
EC50 (3D7 P. falciparum strain): 30 nM; EC50 (W2 strain): 47 nM

What does the source list for O=C(Cc1ccncc1)N1CCn2c(nc(-c3ccc(F)cc3)c2Nc2ccc(Cl)c(F)c2)C1 [Compound 302]?
EC50 (3D7 P. falciparum strain): 170 nM; EC50 (W2 strain): 149 nM

How did the EC50 (3D7 P. falciparum strain) turn out when O=C(Cn1ccc2ccccc21)N1CCn2c(nc(-c3ccc(F)cc3)c2Nc2ccc(Cl)c(F)c2)C1 [Compound 303] was run?
The EC50 was 540 nM.

And the EC50 (W2 strain)?
The EC50 was 439 nM.

Which EC50 (3D7 P. falciparum strain) does the source give for CCN1CCC(CC(=O)N2CCn3c(nc(-c4ccc(F)cc4)c3Nc3ccc(Cl)c(F)c3)C2)CC1 [Compound 304] here?
Its EC50 is 3210 nM.

What about the EC50 (W2 strain) of the same molecule?
The EC50 was 2950 nM.

For O=C(CNc1ccccc1)N1CCn2c(nc(-c3ccc(F)cc3)c2Nc2ccc(Cl)c(F)c2)C1 [Compound 305], which EC50 (3D7 P. falciparum strain) is on record?
The EC50 was 90 nM.

And the EC50 (W2 strain)?
The EC50 was 94 nM.

With O=C(Cc1n[nH]c2ccccc12)N1CCn2c(nc(-c3ccc(F)cc3)c2Nc2ccc(Cl)c(F)c2)C1 [Compound 306] as the molecule, how does the EC50 (3D7 P. falciparum strain) read?
Its EC50 is 420 nM.

What about the EC50 (W2 strain) of the same molecule?
The EC50 was 334 nM.

With CCCNCC(=O)N1CCn2c(nc(-c3ccc(F)cc3)c2Nc2ccc(C)cc2)C1 [Compound 307] as the molecule, how does the EC50 (3D7 P. falciparum strain) read?
Its EC50 is 30 nM.

And the EC50 (W2 strain)?
Its EC50 is 22 nM.
